Results reported in patent US20100113506A1, “COMPOSITION FOR PREVENTING OR TREATING THROMBUS- OR EMBOLUS- ASSOCIATED DISEASE” (priority 2007, published 2010).

Experiments:
[1] = Bleeding time, ear puncture wound (method of Elg et al.); assay type: in vivo, Japanese white rabbits; conditions: rabbit ear puncture; EPA-E 300 mg/kg oral 4 weeks, clopidogrel 20 mg/kg single oral dose
[2] = Prothrombin time (PT) in platelet-poor plasma; assay type: in vivo, Japanese white rabbits; conditions: vs control group; EPA-E 300 mg/kg oral 4 weeks, clopidogrel 20 mg/kg single oral dose
Description: (§1) After the preliminary keeping, the rabbits were randomly divided into four groups, namely, control group, EPA-E group, clopidogrel group, and combination group. To the EPA-E group and the combination group, EPA-E was orally administered once a day for four weeks at a dose of 300 mg/kg. To the control group and the clopidogrel group, a 5% aqueous solution of gum arabic was orally administered instead of EPA-E. After the last EPA-E or gum arabic administration, the rabbits were fasted overnight, then clopidogrel was orally administered to the clopidogrel group and the combination group at a single dose of 20 mg/kg. […] Two hours after the clopidogrel administration, blood was sampled using a syringe containing citric acid in an amount of a tenth of the syringe volume, and the white blood cell count, red blood cell count, hemoglobin, hematocrit, and platelet count were measured on an automated hematology analyzer (type F-820 from Sysmex Corporation). […] The platelet aggregation activity was evaluated on the basis of maximum aggregation rate, and the suppressibility of platelet aggregation was calculated according to the following equation. Platelet-poor plasma (PPP) was measured in terms of prothrombin time (PT) and activated partial thromboplastin time (APTT) as coagulation-related parameters. […]

[3] = Hematological parameters on automated hematology analyzer; assay type: in vivo, Japanese white rabbits; conditions: for Hematocrit / Hemoglobin / Platelet count / Red blood cell count / White blood cell count: mean ± standard error, blood 2 h after clopidogrel, EPA-E 300 mg/kg 4 weeks, clopidogrel 20 mg/kg; for Change of white blood cell count, red blood cell count, hemoglobin, hematocrit and platelet count: vs control group
Description: After the preliminary keeping, the rabbits were randomly divided into four groups, namely, control group, EPA-E group, clopidogrel group, and combination group. To the EPA-E group and the combination group, EPA-E was orally administered once a day for four weeks at a dose of 300 mg/kg. To the control group and the clopidogrel group, a 5% aqueous solution of gum arabic was orally administered instead of EPA-E. After the last EPA-E or gum arabic administration, the rabbits were fasted overnight, then clopidogrel was orally administered to the clopidogrel group and the combination group at a single dose of 20 mg/kg. To the control group and the EPA-E group, the 5% aqueous solution of gum arabic was orally administered instead of clopidogrel. Two hours after the clopidogrel administration, blood was sampled using a syringe containing citric acid in an amount of a tenth of the syringe volume, and the white blood cell count, red blood cell count, hemoglobin, hematocrit, and platelet count were measured on an automated hematology analyzer (type F-820 from Sysmex Corporation). The blood was centrifuged (at 150×g and at room temperature for 15 minutes) immediately after the above measurement to obtain platelet-rich plasma (PRP). […] The platelet aggregation activity was evaluated on the basis of maximum aggregation rate, and the suppressibility of platelet aggregation was calculated according to the following equation. The measurement results set forth for each group are each the mean of the values obtained in 8 or 9 cases plus/minus a standard error. The results were compared between the groups using the Tukey-Kramer method for multiple comparison testing, and the statistical significance was confirmed below a set level of 5%.

[4] = system: platelet aggregation induced by ADP; assay: ADP-induced platelet aggregation in PRP of orally dosed rabbits (ex vivo); parameters: species or system Japanese white rabbits; conditions: ADP 3 μM, clopidogrel 20 mg/kg single oral dose; for Aggregation suppressibility: EPA-E 300 mg/kg oral once a day 4 weeks, blood 2 h after clopidogrel; for Effect on maximum aggregation rate: vs control group, EPA-E 300 mg/kg oral 4 weeks
Description: (§2) After the preliminary keeping, the rabbits were randomly divided into four groups, namely, control group, EPA-E group, clopidogrel group, and combination group. To the EPA-E group and the combination group, EPA-E was orally administered once a day for four weeks at a dose of 300 mg/kg. To the control group and the clopidogrel group, a 5% aqueous solution of gum arabic was orally administered instead of EPA-E. After the last EPA-E or gum arabic administration, the rabbits were fasted overnight, then clopidogrel was orally administered to the clopidogrel group and the combination group at a single dose of 20 mg/kg. To the control group and the EPA-E group, the 5% aqueous solution of gum arabic was orally administered instead of clopidogrel. Two hours after the clopidogrel administration, blood was sampled using a syringe containing citric acid in an amount of a tenth of the syringe volume, and the white blood cell count, red blood cell count, hemoglobin, hematocrit, and platelet count were measured on an automated hematology analyzer (type F-820 from Sysmex Corporation). The blood was centrifuged (at 150×g and at room temperature for 15 minutes) immediately after the above measurement to obtain platelet-rich plasma (PRP). The PRP was further centrifuged (at 1,500×g and at room temperature for 15 minutes) to collect platelet-poor plasma (PPP), and the platelet count was regulated with the PRP and PPP so that it might be […] (final level). The PRP was kept at 37° C. for four minutes, then an ADP (adenosine 5′-diphosphate) solution with a final concentration of 3 μM (MC Medical, Inc.) or a collagen solution with a final concentration of 6 μg/mL (Nycomed) was added thereto as an aggregation inducer so as to observe platelet aggregation using a platelet aggregation analyzer (MCM HEMA TRACER 313M from MC Medical, Inc.). The platelet aggregation activity was evaluated on the basis of maximum aggregation rate, and the suppressibility of platelet aggregation was calculated according to the following equation.
(§3) Aggregation suppressibility (%)={[maximum aggregation rate (mean) in control group]−[maximum aggregation rate (mean) in experimental group]}/[maximum aggregation rate (mean) in control group]×100.
(§4) The measurement results set forth for each group are each the mean of the values obtained in 8 or 9 cases plus/minus a standard error. The results were compared between the groups using the Tukey-Kramer method for multiple comparison testing, and the statistical significance was confirmed below a set level of 5%.

[5] = system: platelet aggregation induced by collagen; assay: Collagen-induced platelet aggregation in PRP of orally dosed rabbits (ex vivo); parameters: species or system Japanese white rabbits; conditions: collagen 6 μg/mL, clopidogrel 20 mg/kg single oral dose; for Effect on maximum aggregation rate: EPA-E 300 mg/kg oral 4 weeks; for Aggregation suppressibility: EPA-E 300 mg/kg oral once a day 4 weeks, blood 2 h after clopidogrel
Description: as §2, §3, §4

[6] = Activated partial thromboplastin time (APTT) in platelet-poor plasma; assay type: in vivo, Japanese white rabbits; conditions: vs control group; EPA-E 300 mg/kg oral 4 weeks, clopidogrel 20 mg/kg single oral dose
Description: as §1

SMILES	Effect on bleeding time [1]	PT (prothrombin time) change [2]	Hematocrit [3] [%]	Hemoglobin [3] [g/dL]	Platelet count [3]	Red blood cell count [3]	White blood cell count [3]	Change of white blood cell count, red blood cell count, hemoglobin, hematocrit and platelet count [3]	Aggregation suppressibility [4] [%]	Effect on maximum aggregation rate [4]	Effect on maximum aggregation rate [5]	Aggregation suppressibility [5] [%]	APTT (activated partial thromboplastin time) change [6]
COC(=O)[C@H](c1ccccc1Cl)N1CCc2sccc2C1 [clopidogrel, (+)-(s)-methyl 2-(2-chlorophenyl)-2-(4,5,6,7-tetrahydrothieno[3,2-c]pyridin-5-yl) acetate monosulfate]	prolonged the bleeding time significantly in a statistical sense	neither PT (prothrombin time) nor APTT (activated partial thromboplastin time) had a statistically significant change	39.3 ± 1.2	13.8 ± 0.4	38.0 ± 2.3 ×10^4/μL	584 ± 17 ×10^4/μL	58.0 ± 4.8 ×10^2/μL	had not a statistically significant change	29	reduced the maximum aggregation rate	no differences were seen which were statistically significant	7	neither PT (prothrombin time) nor APTT (activated partial thromboplastin time) had a statistically significant change
CC/C=C\C/C=C\C/C=C\C/C=C\C/C=C\CCCC(=O)OCC [EPA-E, ethyl icosapentate]	had no influence on the bleeding time	neither PT (prothrombin time) nor APTT (activated partial thromboplastin time) had a statistically significant change	37.3 ± 0.6	13.1 ± 0.2	30.4 ± 1.2 ×10^4/μL	563 ± 10 ×10^4/μL	58.8 ± 5.2 ×10^2/μL	had not a statistically significant change	0	had no influence on the maximum aggregation rate	reduced the maximum aggregation rate significantly in a statistical sense	29	neither PT (prothrombin time) nor APTT (activated partial thromboplastin time) had a statistically significant change
